Each compound was assayed against T1, recombinant EphB4 (Homo sapiens, UniProt P54760) (assay: In vitro EphB4 enzyme assay (Alphascreen)).
T1 construct: amino acids 563-987; Swiss-Prot Acc; No. P54760; purchased ProQinase GmbH 0178-0000-3
T1 sequence (P54760 563-987): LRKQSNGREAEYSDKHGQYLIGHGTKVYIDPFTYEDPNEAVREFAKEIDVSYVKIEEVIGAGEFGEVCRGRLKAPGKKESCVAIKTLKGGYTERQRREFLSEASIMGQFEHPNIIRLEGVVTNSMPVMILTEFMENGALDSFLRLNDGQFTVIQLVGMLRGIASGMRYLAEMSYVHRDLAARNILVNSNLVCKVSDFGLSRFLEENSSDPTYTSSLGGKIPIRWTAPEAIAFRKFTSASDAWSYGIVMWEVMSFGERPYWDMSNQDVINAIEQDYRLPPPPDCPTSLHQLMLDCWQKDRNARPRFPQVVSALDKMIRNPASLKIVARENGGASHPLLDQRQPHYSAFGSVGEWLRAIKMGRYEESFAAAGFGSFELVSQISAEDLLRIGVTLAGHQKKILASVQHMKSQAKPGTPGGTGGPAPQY
Type: biochemical
Method in brief: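 Recombinant EphB4 phosphorylated biotin-poly-GAT with Mg-ATP for 1 hr at room temperature; EDTA stop, then Alphascreen donor/acceptor (anti-phosphotyrosine) beads for 20 hrs in the dark. After minimum subtraction, signal plotted against compound concentration to derive IC50.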

**Q.** For `CN(c1ccnc(Nc2cc(N3CCN(CCO)CC3)cc(S(C)(=O)=O)c2)n1)c1ccc(F)c(Cl)c1F` [Example 2.13, 2-[4-[3-[[4-[(3-chloro-2,4-difluoro-phenyl)-methyl-amino]pyrimidin-2-yl]amino]-5-methylsulfonyl-phenyl]piperazin-1-yl] ethanol], which IC50 is on record?
**A.** The IC50 was 69.7 nM.

**Q.** Which IC50 does the source give for `COCCN(c1ccnc(Nc2cc(N3CCOCC3)cc(N3CCOCC3)c2)n1)c1cc(OC)ccc1C` [Example 22.1, N-(3,5-dimorpholin-4-ylphenyl)-N′-(2-methoxyethyl)-N′-(5-methoxy-2-methyl-phenyl)pyrimidine-2,4-diamine] here?
**A.** The IC50 was 1480 nM.

**Q.** How did the IC50 turn out when `CN(c1ccnc(Nc2cc(N3CCOCC3)cc(N3CCOCC3)c2)n1)c1ccc(F)cc1F` [Example 10.14, N′-(2,4-difluorophenyl)-N-(3,5-dimorpholin-4-ylphenyl)-N′-methyl-pyrimidine-2,4-diamine] was run?
**A.** The IC50 was 381 nM.

**Q.** `COc1cccc(N(c2ccnc(Nc3cc(N4CCOCC4)cc(N4CCOCC4)c3)n2)C(C)C)c1` [Example 20, N2-(3,5-dimorpholinophenyl)-N4-isopropyl-N4-(3-methoxyphenyl)pyrimidine-2,4-diamine] was tested. Which IC50 did it give?
**A.** Its IC50 is 912 nM.

**Q.** How did the IC50 turn out when `CN(c1cccc(Cl)c1)c1ccnc(Nc2cc(C(=O)NC3CCC3)cc(N3CCOCC3)c2)n1` [Example 19.13, 3-[[4-[(3-chlorophenyl)-methyl-amino]pyrimidin-2-yl]amino]-N-cyclobutyl-5-morpholin-4-yl-benzamide] was run?
**A.** Its IC50 is 2080 nM.

**Q.** Which IC50 does the source give for `COCC(C)NC(=O)c1cc(Nc2nccc(N(C)c3cccc(Cl)c3)n2)cc(N2CCOCC2)c1` (centres unmarked) [Example 19.15, 3-[[4-[(3-chlorophenyl)-methyl-amino]pyrimidin-2-yl]amino]-N-(1-methoxypropan-2-yl)-5-morpholin-4-yl-benzamide] here?
**A.** Its IC50 is 1100 nM.

**Q.** With `Cc1cc(C)c(N(C)c2ccnc(Nc3cc(N4CCOCC4)cc(N4CCOCC4)c3)n2)c(C)c1` [Example 10.13, N-(3,5-dimorpholin-4-ylphenyl)-N′-methyl-N′-(2,4,6-trimethylphenyl)pyrimidine-2,4-diamine] as the compound, how does the IC50 read?
**A.** The IC50 was 811 nM.

**Q.** For `CC(C)N(C)C(=O)c1cc(Nc2nccc(N(C)c3cccc(Cl)c3)n2)cc(N2CCOCC2)c1` [Example 19.8], which IC50 is on record?
**A.** Its IC50 is 1450 nM.

**Q.** For `CN(c1ccnc(Nc2cc(N3CCOCC3)cc(N3CCOCC3)c2)n1)c1cccc(Cl)c1F` [Example 15.15, N′-(3-chloro-2-fluoro-phenyl)-N-(3,5-dimorpholin-4-ylphenyl)-N′-methyl-pyrimidine-2,4-diamine], which IC50 is on record?
**A.** Its IC50 is 696 nM.

**Q.** With `CN(c1ccnc(Nc2cc(N3CCOCC3)cc(N3CCOCC3)c2)n1)c1ccc(F)c(Cl)c1F` [Example 2.1, N′-(3-chloro-2,4-difluoro-phenyl)-N-(3,5-dimorpholin-4-ylphenyl)-N′-methyl-pyrimidine-2,4-diamine] as the compound, how does the IC50 read?
**A.** The IC50 was 829 nM.

**Q.** For `CN(c1ccnc(Nc2cc(C#N)cc(N3CCOCC3)c2)n1)c1ccc(F)c(Cl)c1F` [Example 2.5, 3-[[4-[(3-chloro-2,4-difluoro-phenyl)-methyl-amino]pyrimidin-2-yl]amino]-5-morpholin-4-yl-benzonitrile], which IC50 is on record?
**A.** The IC50 was 937 nM.

**Q.** For `COCCN(C)C(=O)c1cc(Nc2nccc(N(C)c3cc(CO)ccc3C)n2)cc(N2CCOCC2)c1` [Example 18.7, 3-[[4-[[5-(hydroxymethyl)-2-methyl-phenyl]-methyl-amino]pyrimidin-2-yl]amino]-N-(2-methoxyethyl)-N-methyl-5-morpholin-4-yl-benzamide], which IC50 is on record?
**A.** The IC50 was 118 nM.

**Q.** For `CN(c1ccnc(Nc2cc(CN3CCOCC3)cc(N3CCOCC3)c2)n1)c1ccc(F)c(Cl)c1F` [Example 2.16, N′-(3-chloro-2,4-difluoro-phenyl)-N′-methyl-N-[3-morpholin-4-yl-5-(morpholin-4-ylmethyl)phenyl]py-rimidine-2,4-diamine], which IC50 is on record?
**A.** Its IC50 is 307 nM.

**Q.** With `CCN(c1ccnc(Nc2cc(N3CCOCC3)cc(S(C)(=O)=O)c2)n1)c1cc(CO)ccc1C` [Example 8.1, [3-[ethyl-[2-[(3-methylsulfonyl-5-morpholin-4-yl-phenyl)amino]pyrimidin-4-yl]amino]-4-methyl-phenyl]methanol] as the compound, how does the IC50 read?
**A.** The IC50 was 414 nM.

**Q.** Which IC50 does the source give for `C[C@@H](CO)N(C)C(=O)c1cc(Nc2nccc(N(C)c3cccc(Cl)c3)n2)cc(N2CCOCC2)c1` [Example 19.6] here?
**A.** Its IC50 is 339 nM.

**Q.** Which IC50 does the source give for `CN(C)C(=O)c1cc(Nc2nccc(N(C)c3cccc(Cl)c3)n2)cc(N2CCOCC2)c1` [Example 19.1, 3-[[4-[(3-chlorophenyl)-methyl-amino]pyrimidin-2-yl]amino]-N,N-dimethyl-5-morpholin-4-yl-benzamide] here?
**A.** Its IC50 is 419 nM.

**Q.** How did the IC50 turn out when `Cc1ccc(CO)cc1N(C)c1ccnc(Nc2cc(N3CCOCC3)cc(N3CCOC[C@@H]3C)c2)n1` [Example 7.17, (S)-(4-methyl-3-(methyl(2-(3-(3-methylmorpholino)-5-morpholinophenyl-amino)pyrimidin-4-yl)amino)phenyl)methanol] was run?
**A.** Its IC50 is 3.13 nM.

**Q.** How did the IC50 turn out when `Cc1ccc(CO)cc1N(C)c1ccnc(Nc2cc(N3CCOCC3)cc(N3CCC(=O)CC3)c2)n1` [Example 7.19, 1-(3-(4-((5-(hydroxymethyl)-2-methylphenyl)(methyl)amino)pyrimidin-2-ylamino)-5-morpholinophenyl)piperidin-4-one] was run?
**A.** The IC50 was 9.73 nM.

**Q.** With `COc1ccc(C)c(N(C)c2ccnc(Nc3cc(C(=O)N(C)C)cc(N4CCOCC4)c3)n2)c1` [Example 12.3, 3-[[4-[(5-methoxy-2-methyl-phenyl)-methyl-amino]pyrimidin-2-yl]amino]-N,N-dimethyl-5-morpholin-4-yl-benzamide] as the compound, how does the IC50 read?
**A.** The IC50 was 455 nM.

**Q.** How did the IC50 turn out when `CN1CCN(c2cc(Nc3nccc(N(C)c4ccc(F)c(Cl)c4F)n3)cc(N3CCOCC3)c2)CC1` [Example 5, N′-(3-chloro-2,4-difluoro-phenyl)-N′-methyl-N-[3-(4-methylpiperazin-1-yl)-5-morpholin-4-yl-phenyl]pyrimidine-2,4-diamine] was run?
**A.** Its IC50 is 424 nM.

**Q.** Which IC50 does the source give for `CN(CCO)C(=O)c1cc(Nc2nccc(N(C)c3cccc(Cl)c3)n2)cc(N2CCOCC2)c1` [Example 19.2, 3-[[4-[(3-chlorophenyl)-methyl-amino]pyrimidin-2-yl]amino]-N-(2-hydroxyethyl)-N-methyl-5-morphohn-4-yl-benzamide] here?
**A.** The IC50 was 395 nM.

**Q.** `CC(=O)c1ccc(C)c(N(C)c2ccnc(Nc3cc(N4CCOCC4)cc(N4CCOCC4)c3)n2)c1` [Example 25.5, 1-(3-((2-(3,5-dimorpholinophenylamino)pyrimidin-4-yl)(methyl)amino)-4-methylphenyl)ethanone] was tested. Which IC50 did it give?
**A.** The IC50 was 127 nM.

**Q.** For `Cc1ccc(CO)cc1N(C)c1ccnc(Nc2cc(N3CCOCC3)cc(N3CCOCC3=O)c2)n1` [Example 7.16, 4-[3-[[4-[[5-(hydroxymethyl)-2-methyl-phenyl]-methyl-amino]pyrimidin-2-yl]amino]-5-morpholin-4-yl-phenyl]morpholin-3-one], which IC50 is on record?
**A.** Its IC50 is 22.2 nM.

**Q.** How did the IC50 turn out when `CN(c1ccnc(Nc2cc(N3CCOCC3)cc(N3CCOCC3)c2)n1)c1cc(F)ccc1F` [Example 15.8, N′-(2,5-difluorophenyl)-N-(3,5-dimorpholin-4-ylphenyl)-N′-methyl-pyrimidine-2,4-diamine] was run?
**A.** The IC50 was 338 nM.

**Q.** How did the IC50 turn out when `Cc1ccc(CO)cc1N(C)c1ccnc(Nc2cc(N3CCOCC3)cc(N3CCOC[C@H]3C)c2)n1` [Example 7.18, (R)-(4-methyl-3-(methyl(2-(3-(3-methylmorpholino)-5-morpholinophenyl-amino)pyrimidin-4-yl)amino)phenyl)methanol] was run?
**A.** Its IC50 is 6.45 nM.

**Q.** For `Cc1cccc(CO)c1N(C)c1ccnc(Nc2cc(N3CCOCC3)cc(N3CCOCC3)c2)n1` [Example 25.1, (2-((2-(3,5-dimorpholinophenylamino)pyrimidin-4-yl)(methyl)amino)-3-methylphenyl)methanol], which IC50 is on record?
**A.** Its IC50 is 52.8 nM.

**Q.** `COCCNC(=O)c1cc(Nc2nccc(N(C)c3cccc(Cl)c3)n2)cc(N2CCOCC2)c1` [Example 19.18, 3-[[4-[(3-chlorophenyl)-methyl-amino]pyrimidin-2-yl]amino]-N-(2-methoxyethyl)-5-morpholin-4-yl-benzamide] was tested. Which IC50 did it give?
**A.** Its IC50 is 614 nM.

**Q.** Which IC50 does the source give for `COc1ccc(C)c(N(C)c2ccnc(Nc3cc(N4CCOCC4)cc(S(C)(=O)=O)c3)n2)c1` [Example 12.2, N′-(5-methoxy-2-methyl-phenyl)-N′-methyl-N-(3-methylsulfonyl-5-morpholin-4-yl-phenyl)pyrimidine-2,4-diamine] here?
**A.** The IC50 was 29.4 nM.

**Q.** Which IC50 does the source give for `COCCOc1cc(Nc2nccc(N(C)c3ccc(F)c(Cl)c3F)n2)cc(N2CCOCC2)c1` [Example 2.9, N′-(3-chloro-2,4-difluoro-phenyl)-N-[3-(2-methoxyethoxy)-5-morpholin-4-yl-phenyl]-N′-methyl-pyrimidine-2,4-diamine] here?
**A.** Its IC50 is 781 nM.

**Q.** How did the IC50 turn out when `Cc1ccc(CO)cc1N(CC1CC1)c1ccnc(Nc2cc(N3CCOCC3)cc(S(C)(=O)=O)c2)n1` [Example 8.4, [3-[cyclopropyl-methyl-[2-[(3-methylsulfonyl-5-morpholin-4-yl-phenyl)amino]pyrimidin-4-yl]amino]-4-methyl-phenyl]methanol] was run?
**A.** Its IC50 is 1070 nM.

**Q.** For `CCOc1cc(Nc2nccc(N(C)c3cc(CO)ccc3C)n2)cc(N2CCOCC2)c1` [Example 16, [3-[[2-[(3-ethoxy-5-morpholin-4-yl-phenyl)amino]pyrimidin-4-yl]-methyl-amino]-4-methyl-phenyl]methanol], which IC50 is on record?
**A.** Its IC50 is 132 nM.

**Q.** Which IC50 does the source give for `CN(c1ccnc(Nc2cc(CN3CCC(O)CC3)cc(N3CCOCC3)c2)n1)c1ccc(F)c(Cl)c1F` [Example 2.19, 1-[[3-[[4-[(3-chloro-2,4-difluoro-phenyl)-methyl-amino]pyrimidin-2-yl]amino]-5-morpholin-4-yl-phenyl]methyl]piperidin-4-ol] here?
**A.** Its IC50 is 59.6 nM.

Reference: patent US20080242663A1, “NOVEL PYRIMIDINE DERIVATIVES 698” (ASTRAZENECA AB, priority 2007, published 2008)
